Each compound was assayed against T1, human FAAH (Homo sapiens, UniProt O00519) (assay: Human FAAH biochemical inhibition assay (AMC arachidonoyl amide fluorescence)). Conditions: not given.
T1 construct: host or cells: COS-7 cells, transient transfection; 13,000 g membrane fraction solubilised in 1% Triton X-100
T1 sequence (O00519 1-579): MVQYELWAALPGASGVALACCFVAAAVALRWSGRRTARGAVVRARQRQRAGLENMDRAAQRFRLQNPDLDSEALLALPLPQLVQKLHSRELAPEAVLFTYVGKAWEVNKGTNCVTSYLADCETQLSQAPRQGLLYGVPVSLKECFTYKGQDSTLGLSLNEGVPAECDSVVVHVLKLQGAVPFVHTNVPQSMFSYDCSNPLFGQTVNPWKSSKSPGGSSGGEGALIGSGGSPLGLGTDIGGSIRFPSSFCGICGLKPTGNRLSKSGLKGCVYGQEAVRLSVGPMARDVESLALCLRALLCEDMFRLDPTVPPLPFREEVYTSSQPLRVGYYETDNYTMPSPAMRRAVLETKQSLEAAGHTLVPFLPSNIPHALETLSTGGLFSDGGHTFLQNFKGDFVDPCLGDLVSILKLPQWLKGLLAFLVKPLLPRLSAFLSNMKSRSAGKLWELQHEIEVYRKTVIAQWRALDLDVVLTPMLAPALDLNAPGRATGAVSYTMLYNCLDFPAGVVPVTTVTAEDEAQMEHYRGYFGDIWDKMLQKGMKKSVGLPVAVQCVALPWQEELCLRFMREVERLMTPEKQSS
Method: The resulting solution is added into one dish of 30-40% confluent COS-7 cells in a drop-wise manner. The COS-7 cell dish is subsequently incubated for 48 hours. The cells are then harvested.
Harvest procedure: Media was aspirated from the dishes and the cells rinsed with 10 mL PBS. The PBS was removed and 3 mLs of PBS added to the dish. The dish was scraped to resuspend the cells, and the subsequent cell suspension collected into a 15 ml conical tube. The cells were pelleted by centrifugation at 1200 rpm for 5 minutes in a bench top centrifuge. PBS was removed and the cell pellet snap frozen in liquid nitrogen, store at −80 C.
The pellets were dounce homogenized and then sonicated to produce cell extract. The cell extract was subsequently centrifuged at 1000 g to remove cellular debris. The pellet was discarded and the supernatant centrifuged at 13,000 g for 20 minutes. The pellet contained membrane bound FAAH. The supernatant was discarded and the pellet resolubilized.
(2) Re-solubilization: The fraction of interest, (13,000 g, membrane fraction) was re-suspended in re-suspension buffer (20 mM Hepes pH 7.8, 10% v/v Glycerol, 1 mM EDTA, 1% Triton X-100) (2.3 mL re-suspension and the sample incubated on ice for 1 hour and then centrifuged to at 13,000 g remove any particulate matter. The supernatant containing solubilized human FAAH was aliquoted and snap frozen in liquid nitrogen and stored at −80° C. until use.
FAAH reaction buffer: 50 mM Hepes (pH 7.5), 1 mM EDTA, 0.2% Triton X-100.
Human FAAH assay; Experimental Protocol: A 0.1 mg/mL Human FAAH solution is made up in FAAH reaction buffer, and 24 ul pipetted into a 384 well plate. To this is added 1 uL of a 3 fold serially diluted inhibitor from a DMSO stock solution. The FAAH solution and inhibitor are incubated for 30 minutes at room temperature. The FAAH reaction is initiated by the addition of 25 uL of 40 uM AMC Arachidonoyl Amide in FAAH reaction buffer, yielding a final reaction human FAAH preparation concentration of 0.05 mg/ml and AMC-Arachidonoyl substrate concentration of 20 uM, reaction volume 50 uL. The reaction is allowed to proceed for 4 hours at room temperature. […] The microtiter plate in read in the envision plate reader.

Structure (SMILES) | Ki
OB(O)c1ccc(Cl)cc1 [Compound I-82] | 10 to 1000 nM

Same assay, conditions: Table 1, human FAAH (no asterisk); read-out: Activity (Ki)

Structure (SMILES) | Ki
CC1(C)OB(c2cccc3cc[nH]c23)OC1(C)C [Compound I-3] | > 1000 nM
COc1cccc(COc2c(Br)cccc2B(O)O)c1 [Compound I-5] | > 1000 nM
CCOc1ccc(Br)cc1B(O)O [Compound I-6] | > 1000 nM
CC(C)Oc1c(Br)cc(F)cc1B(O)O [Compound I-7] | > 1000 nM
CCCOc1c(Br)cc(F)cc1B(O)O [Compound I-8] | > 1000 nM
OB(O)C1=CCCCCC1 [Compound I-11] | > 1000 nM
COc1ccc(Br)cc1B(O)O [Compound I-12] | > 1000 nM
COc1cc(Br)cc(B(O)O)c1 [Compound I-17] | > 1000 nM
CCOc1cc(B(O)O)cc(C(F)(F)F)c1 [Compound I-19] | > 1000 nM
COc1cc(B(O)O)cc(C(F)(F)F)c1 [Compound I-21] | > 1000 nM
OB(O)c1cccs1 [Compound I-40] | > 1000 nM
OB(O)c1cccc2cnccc12 [Compound I-41] | > 1000 nM
OB(O)c1c(F)c(F)c(Br)c(F)c1F [Compound I-44] | > 1000 nM
CS(=O)(=O)c1cccc(B(O)O)c1 [Compound I-47] | > 1000 nM
CCCCOc1c(F)c(F)c(B(O)O)c(F)c1F [Compound I-53] | > 1000 nM
CCCOc1c(F)c(F)c(B(O)O)c(F)c1F [Compound I-54] | > 1000 nM
OB(O)c1c(F)c(F)cc(F)c1F [Compound I-55] | > 1000 nM
OB(O)c1cncc2ccccc12 [Compound I-62] | > 1000 nM
OB(O)c1cc(C(F)(F)F)cc(C(F)(F)F)c1 [Compound I-63] | > 1000 nM
OB(O)c1ccoc1 [Compound I-64] | > 1000 nM
OB(O)c1cnc2ccccc2c1 [Compound I-65] | > 1000 nM

Structure (SMILES) | Ki
O=[N+]([O-])c1ccccc1B(O)O [Compound I-66] | > 1000 nM
CN(C)c1ccc(B(O)O)cc1 [Compound I-68] | > 1000 nM
OB(O)c1cccc(F)c1 [Compound I-71] | > 1000 nM
OB(O)c1ccc(F)cc1 [Compound I-72] | > 1000 nM
OB(O)c1ccc(O)cc1 [Compound I-74] | > 1000 nM
COc1cccc(B(O)O)c1 [Compound I-76] | > 1000 nM
COc1ccc(B(O)O)cc1OC [Compound I-77] | > 1000 nM
COc1ccccc1B(O)O [Compound I-78] | > 1000 nM
Cc1cccc(B(O)O)c1 [Compound I-79] | > 1000 nM
Cc1ccccc1B(O)O [Compound I-81] | > 1000 nM
COc1ccc(B(O)O)cc1 [Compound I-87] | > 1000 nM
OB(O)c1ccc2c(c1)OCO2 [Compound I-88] | > 1000 nM
OB(O)c1cncnc1 [Compound I-89] | > 1000 nM
OB(O)c1ccncc1 [Compound I-90] | > 1000 nM
OB(O)c1cccnc1 [Compound I-91] | > 1000 nM
OB(O)c1ccsc1 [Compound I-92] | > 1000 nM
OB(O)c1ccco1 [Compound I-93] | > 1000 nM
Cc1ccc(B(O)O)cc1 [Compound I-96] | > 1000 nM
OB(O)c1ccc2c(c1)OCCO2 [Compound I-98] | 10 to 1000 nM
OB1OCCc2ccccc21 [Compound I-99] | > 1000 nM

More lines, now with the values ahead:

Ki | Structure (SMILES)
10 to 1000 nM | OB(O)c1cc(I)ccc1F [Compound I-1]
10 to 100 nM | OB(O)c1cccc(I)c1 [Compound I-2]
10 to 1000 nM | OB(O)c1cccc2c1oc1ccccc12 [Compound I-4]
10 to 1000 nM | CCOc1c(Br)cc(F)cc1B(O)O [Compound I-9]
10 to 100 nM | COc1c(Br)cc(F)cc1B(O)O [Compound I-10]
10 to 100 nM | OB(O)c1cc(F)cc(C(F)(F)F)c1 [Compound I-13]
10 to 1000 nM | Cc1cc(F)cc(B(O)O)c1 [Compound I-14]
10 to 1000 nM | COc1cc(F)cc(B(O)O)c1 [Compound I-15]
10 to 1000 nM | CCOc1cc(F)cc(B(O)O)c1 [Compound I-16]
10 to 100 nM | OB(O)c1cc(F)cc(Cl)c1 [Compound I-18]
10 to 1000 nM | Cc1cc(Cl)cc(B(O)O)c1 [Compound I-20]
10 to 1000 nM | OB(O)c1cc(Cl)cc(Cl)c1 [Compound I-22]
10 to 1000 nM | OB(O)c1cc(Br)cc(Br)c1 [Compound I-23]
10 to 1000 nM | OB(O)c1cc(F)cc(F)c1 [Compound I-24]
10 to 1000 nM | Cc1cc(Br)cc(B(O)O)c1 [Compound I-25]
10 to 100 nM | OB(O)c1cc(F)cc(Br)c1 [Compound I-26]
10 to 100 nM | OB(O)c1cc(OC(F)(F)F)ccc1F [Compound I-27]
10 to 1000 nM | OB(O)c1ccc(F)c(OCC(F)(F)F)c1 [Compound I-28]
10 to 100 nM | OB(O)c1cccc(Br)c1 [Compound I-29]

Ki | Structure (SMILES)
< 10 nM | CCC[C@H]1CC[C@H](c2ccc(B(O)O)cc2)CC1 [Compound I-30]
10 to 100 nM | OB(O)c1ccc(-c2cccs2)cc1 [Compound I-31]
10 to 1000 nM | COc1ccc(B(O)O)cc1Cl [Compound I-32]
10 to 1000 nM | Cc1ccc(B(O)O)cc1Cl [Compound I-33]
10 to 100 nM | OB(O)c1ccc(Br)c(F)c1F [Compound I-34]
10 to 100 nM | CC(C)Oc1ccc(B(O)O)cc1Cl [Compound I-35]
< 10 nM | CCCCOc1ccc(B(O)O)cc1F [Compound I-36]
10 to 1000 nM | OB(O)c1ccc(Cl)s1 [Compound I-37]
< 10 nM | CCCCOc1ccc(B(O)O)cc1Cl [Compound I-38]
10 to 1000 nM | OB(O)c1ccccc1Cl [Compound I-39]
10 to 1000 nM | CC(=O)c1cccc(B(O)O)c1 [Compound I-42]
< 10 nM | OB(O)c1ccc(C2CCCC2)cc1 [Compound I-43]
10 to 1000 nM | OB(O)c1cccc(OC(F)(F)F)c1 [Compound I-45]
10 to 1000 nM | N#Cc1ccc(B(O)O)cc1 [Compound I-46]
10 to 1000 nM | OB(O)c1ccccc1OC(F)(F)F [Compound I-48]
< 10 nM | CCCCCCCc1ccc(B(O)O)cc1 [Compound I-49]
10 to 100 nM | OB(O)c1cccc(C(F)(F)F)c1 [Compound I-50]
10 to 1000 nM | OB(O)c1ccsc1Cl [Compound I-51]
< 10 nM | CCOc1ccc2cc(B(O)O)ccc2c1 [Compound I-52]

Ki | Structure (SMILES)
< 10 nM | OB(O)c1ccc2cc(OCc3ccccc3)ccc2c1 [Compound I-56]
10 to 1000 nM | CCc1ccc(B(O)O)cc1 [Compound I-57]
10 to 100 nM | CCCc1ccc(B(O)O)cc1 [Compound I-58]
10 to 1000 nM | CCOc1ccc(B(O)O)cc1 [Compound I-59]
10 to 100 nM | CCCOc1ccc(B(O)O)cc1 [Compound I-60]
10 to 100 nM | CCCCOc1ccc(B(O)O)cc1 [Compound I-61]
10 to 1000 nM | OB(O)c1ccc(Br)cc1 [Compound I-69]
10 to 100 nM | OB(O)c1ccc(I)cc1 [Compound I-70]
10 to 1000 nM | OB(O)c1cccc(Cl)c1 [Compound I-73]
10 to 100 nM | OB(O)c1ccc(Cl)c(Cl)c1 [Compound I-75]
10 to 1000 nM | Cc1ccc(B(O)O)cc1C [Compound I-80]
10 to 1000 nM | O=[N+]([O-])c1ccc(B(O)O)cc1 [Compound I-83]
10 to 1000 nM | CS(=O)(=O)c1ccc(B(O)O)cc1 [Compound I-84]
10 to 1000 nM | CC(=O)c1ccc(B(O)O)cc1 [Compound I-85]
10 to 100 nM | OB(O)c1ccc(C(F)(F)F)cc1 [Compound I-86]
10 to 100 nM | CC(C)(C)c1ccc(B(O)O)cc1 [Compound I-94]
10 to 100 nM | CC(C)c1ccc(B(O)O)cc1 [Compound I-95]
10 to 100 nM | CC(C)Cc1ccc(B(O)O)cc1 [Compound I-97]
